{
  "source": "patent US20220047773A1",
  "about": "“SELF-ELIMINATING COATINGS” (Interface Biologics, Inc., priority 2007, published 2022)",
  "experiment": "Partitioning in 1-octanol/PBS system",
  "format": "physicochemical",
  "protocol": "The partitioning of Compounds synthesized in Examples 1-13 was measured in a 1-octanol/PBS system. The partitioning correlates with the lipophilicity of the Compounds, and is used to predict the adsorption and distribution of Compounds under investigation. 1-octanol and PBS were thoroughly mixed to provide PBS-saturated 1-octanol in the top phase and 1-octanol-saturated PBS in the bottom phase. Solutions of Compounds 1, 2, 3, 6, 7, 8, 9, 10, 11, 12, 16, PTX, and SIBS (0.05 mL) were added to each vial of 1-octanol/PBS. The vials were rocked for 4 hours, ensuring good contact between the phases. An aliquot of the organic phase from each sample was then analyzed by GPC (THF mobile phase, RI), which had been calibrated using known concentrations of each compound. The area under the RI peak was used to estimate the concentration of each compound in the organic phase. The mass of each Compound was then used to calculate the weight percentage in organic phase by the following formula: (mass of Compound in 1-octanol phase/total mass)×100%. The partition coefficient was calculated according to the following formula: log([Compound in 1-octanol]/[Compound in PBS]). […]",
  "data": [
    {"smiles": "CC(=O)O[C@H]1C(=O)[C@@]2(C)[C@H]([C@H](OC(=O)c3ccccc3)[C@]3(O)C[C@H](OC(=O)[C@H](O)[C@@H](NC(=O)c4ccccc4)c4ccccc4)C(C)=C1C3(C)C)[C@]1(OC(C)=O)CO[C@@H]1C[C@@H]2O", "note": "[PTX, paclitaxel, reference compound]", "values": [
      {"measurement": "logD at 4 h", "result": 1},
      {"measurement": "wt % in 1-octanol", "setting": "1-octanol/PBS, rocked 4 hours, GPC of organic phase", "result": 94, "unit": "%"}
    ]}
  ]
}
